According to patent publication US11685726B2, “Pharmaceutical compositions of 6-(2-(2H-tetrazol-5-yl)ethyl)-6-fluorodecahydroisoquinoline-3-carboxylic acid and ester derivatives thereof” (Sea Pharmaceuticals LLC, priority 2020, dated 2023):

System: AMPA receptor
Assay: Whole cell patch-clamp recording of s-AMPA induced currents in pyramidal neurons of rat brain prefrontal cortex slices
Assay type: cell-based
Conditions: 20 μM s-AMPA, rat brain cortex slices
Method: Additionally biological activity of compounds as antagonists of AMPA receptors or NMDA receptors (also called ionotropic glutamate-gated ion channels) were conducted using ex vivo functional electrophysiological assays of pyramidal neurons in slices of rat brain prefrontal cortex. Effects of test compounds cf. reference compounds were studied by whole cell patch-clamp electrophysiology recordings of s-AMPA-induced currents or NMDA-induced currents, respectively, using rat brain slice prefrontal cortex (layer V) pyramidal neurons.
Male Sprague Dawley rats were supplied by Charles River Laboratories (Wilmington, Mass. USA) and were housed 4 per cage within a temperature (20.5-23.5° C.) and humidity (30-80%) controlled environment on a 12 hour light/dark cycle with access to food (Teklad Global Soy Protein, Cat. No. T.2920X10, Envigo, Indianapolis, Ind., USA) and water ad libitum. At 4-6 weeks of age rats were terminally anaesthetized using isofluorane [(1-chloro-2,2,2-trifluoroethyl difluoromethyl ether) supplied by Baxter Healthcare Corp, Deerfield, Ill., USA], and decapitated. The brain was removed and 300 μm thick coronal prefrontal cortex (PFC) or sagittal hippocampal slices were sectioned using a Vibratome microtome. After brain removal, and throughout slicing, the tissue was submerged in ice cold […] cerebrospinal fluid (aCSF). Once slices were cut, they were transferred to a beaker containing aCSF and left at room temperature for a minimum of 1 hour before commencing electrophysiological recordings. After this period, individual slices were transferred to a recording chamber continuously perfused with aCSF at a rate of 4-6 mL/min before commencing experiment protocols. aCSF composition (in mM): NaCl, 127; KCl, 1.9; KH2PO4, 1.2; CaCl2), 2.4; MgCl2, 1.3; NaHCO3, 26; D-glucose, 10; in water equilibrated with 95% Oxygen gas-5% CO2 gas (reagent suppliers listed below). Experiments investigating NMDA currents had aCSF supplemented with 10 μM glycine (reagents suppliers listed below). All experiments were conducted following protocols with the approval of an Institutional Animal Care and Use Committee (IACUC).
Whole cell patch-clamp recordings were performed from Layer V prefrontal cortex pyramidal neurons at room temperature using the ‘visualized’ version of the patch-clamp technique. […]
All test compound experiments were carried out in the voltage-clamp recording configuration of the whole cell patch-clamp technique and all recordings performed at a holding potential of −60 mV. Recordings were monitored on a Dell personal computer (PC) running Axon pClamp software (Molecular Devices, Sunnyvale, Calif., USA) and digitized at 10 kHz. […]

[1] = Tested at 1 pM (so in the source)

| SMILES | % inhibition +/- SEM of s-AMPA induced currents in neurons [1] | % inhibition +/- SEM of s-AMPA induced currents in neurons (Tested at 10 pM (so in the source)) |
| --- | --- | --- |
| O=C(O)[C@@H]1C[C@H]2CC(F)(CCc3nnn[nH]3)CC[C@H]2CN1 (stereo in doubt) [Compound 2, (3S,4aS,6R,8aR)-6-fluoro-6-[2-(1H-1,2,3,4-tetrazol-5-yl)ethyl]-decahydroisoquinoline-3-carboxylic acid] | 21.4 ± 2.1 (n = 3) % |  |
| O=C(O)[C@@H]1C[C@H]2C[C@@](F)(CCc3nnn[nH]3)CC[C@H]2CN1 [Compound 1, (3S,4aS,6S,8aR)-6-fluoro-6-[2-(1H-1,2,3,4-tetrazol-5-yl)ethyl]-decahydroisoquinoline-3-carboxylic acid] | 55.6 ± 5.8 (n = 3) % | >90 (n = 1) % |
